US8778935B2 (Centro Nacional de Investigaciones Oncologicas (CNIO), priority 2009, dated 2014)
Read-outs that look alike come from different tables or passages of the source.

Target: T1, PI3K (p110α/p85α) (Homo sapiens, UniProt P42336)
T1 construct: purchased Carna Biosciences 07CBS-0402A
Assay: PI3K Activity Assay (ADP Hunter Plus)
Format: biochemical
Protocol: The kinase activity was measured by using the commercial ADP Hunter™ Plus assay available from DiscoveRx (#33-016), which is a homogeneous assay to measure the accumulation of ADP, a universal product of kinase activity. […] Reaction was carried out for 1 hour at 25° C. Reagent A and B were sequentially added to the wells and plates were incubated for 30 min at 37° C. […] Values were normalized against the control activity included for each enzyme (i.e., 100% PI3 kinase activity, without compound). These values were plot against the inhibitor concentration and were fit to a sigmoid dose-response curve by using the Graphad software.

[1] = quantitative results, read-out: PI3Kα IC50
[2] = semi-quantitative results, read-out: PI3Kα IC50 (semi-quantitative class)
[3] = quantitative results of Table 4, read-out: PI3Kα IC50

T1 sequence (P42336 whole entry): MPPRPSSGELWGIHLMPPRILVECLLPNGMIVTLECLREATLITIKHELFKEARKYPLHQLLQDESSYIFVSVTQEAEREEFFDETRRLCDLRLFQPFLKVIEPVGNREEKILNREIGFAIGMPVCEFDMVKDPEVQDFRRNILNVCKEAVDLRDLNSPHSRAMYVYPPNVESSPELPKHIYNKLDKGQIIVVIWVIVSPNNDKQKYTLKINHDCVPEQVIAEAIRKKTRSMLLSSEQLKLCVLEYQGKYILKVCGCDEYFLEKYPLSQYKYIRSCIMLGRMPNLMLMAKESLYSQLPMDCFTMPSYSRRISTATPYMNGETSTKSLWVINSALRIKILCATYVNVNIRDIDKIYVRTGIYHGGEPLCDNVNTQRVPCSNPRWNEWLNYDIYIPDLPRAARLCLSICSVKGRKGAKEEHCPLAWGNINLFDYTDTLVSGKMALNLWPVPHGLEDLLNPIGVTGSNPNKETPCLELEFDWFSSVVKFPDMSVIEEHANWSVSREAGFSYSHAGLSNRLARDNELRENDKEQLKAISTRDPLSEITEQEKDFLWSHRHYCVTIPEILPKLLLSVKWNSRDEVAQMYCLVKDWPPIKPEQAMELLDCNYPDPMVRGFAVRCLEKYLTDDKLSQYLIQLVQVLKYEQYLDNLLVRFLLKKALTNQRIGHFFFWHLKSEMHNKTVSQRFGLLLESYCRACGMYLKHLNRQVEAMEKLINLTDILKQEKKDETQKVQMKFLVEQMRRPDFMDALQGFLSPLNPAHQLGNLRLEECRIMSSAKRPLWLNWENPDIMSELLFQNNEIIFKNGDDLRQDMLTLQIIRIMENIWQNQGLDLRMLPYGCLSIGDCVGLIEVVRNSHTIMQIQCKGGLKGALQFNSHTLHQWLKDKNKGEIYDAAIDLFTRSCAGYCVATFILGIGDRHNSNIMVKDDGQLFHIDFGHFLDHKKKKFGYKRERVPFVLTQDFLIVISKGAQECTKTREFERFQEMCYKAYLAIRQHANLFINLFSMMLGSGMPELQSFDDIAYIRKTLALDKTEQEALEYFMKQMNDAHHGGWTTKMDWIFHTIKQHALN
T1 sequence (P27986 whole entry partner): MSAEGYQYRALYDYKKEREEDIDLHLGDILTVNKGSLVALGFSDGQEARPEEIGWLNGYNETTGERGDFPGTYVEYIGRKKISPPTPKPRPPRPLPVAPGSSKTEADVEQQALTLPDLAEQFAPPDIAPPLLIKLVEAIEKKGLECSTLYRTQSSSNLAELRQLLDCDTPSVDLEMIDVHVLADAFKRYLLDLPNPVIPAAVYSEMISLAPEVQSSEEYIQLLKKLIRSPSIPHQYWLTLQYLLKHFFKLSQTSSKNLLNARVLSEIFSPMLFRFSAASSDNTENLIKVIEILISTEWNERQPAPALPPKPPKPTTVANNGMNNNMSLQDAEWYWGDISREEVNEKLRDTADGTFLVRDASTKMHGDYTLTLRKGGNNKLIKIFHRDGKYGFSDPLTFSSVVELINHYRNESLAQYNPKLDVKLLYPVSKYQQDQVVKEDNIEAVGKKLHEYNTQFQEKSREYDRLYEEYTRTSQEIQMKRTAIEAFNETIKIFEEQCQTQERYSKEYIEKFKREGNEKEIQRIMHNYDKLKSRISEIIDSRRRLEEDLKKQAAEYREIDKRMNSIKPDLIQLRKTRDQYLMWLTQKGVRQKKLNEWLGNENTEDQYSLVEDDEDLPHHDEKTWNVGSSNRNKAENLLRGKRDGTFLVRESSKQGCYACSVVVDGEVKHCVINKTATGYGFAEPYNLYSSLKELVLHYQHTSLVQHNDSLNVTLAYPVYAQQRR

| Compound | IC50 [1] | IC50 [2] | IC50 [3] |
| --- | --- | --- | --- |
| O=Cc1cn2cc(-c3cccc(O)c3)nc(N3CCOCC3)c2n1 [2-03, 6-(3-hydroxyphenyl)-8-morpholinoimidazo[1,2-a]pyrazine-2-carbaldehyde] | 10000 nM |  |  |
| c1cc(-c2cn3cc(C4CC4)nc3c(N3CCOCC3)n2)c2cn[nH]c2c1 [2-19, 2-cyclopropyl-6-(1H-indazol-4-yl)-8-morpholinoimidazo[1,2-a]pyrazine] | 438 nM |  |  |
| FC(F)(F)c1cn2cc(-c3cccc4[nH]ncc34)nc(N3CCOCC3)c2n1 [2-20, 2-(trifluoromethyl)-6-(1H-indazol-4-yl)-8-morpholinoimidazo[1,2-a]pyrazine] | 1800 nM |  |  |
| N#Cc1cn2cc(-c3cccc4[nH]ncc34)nc(N3CCOCC3)c2n1 [2-22, 6-(1H-indazol-4-yl)-8-morpholinoimidazo[1,2-a]pyrazine-2-carbonitrile] | 618 nM | 100 to 1000 nM |  |
| Cc1cn2cc(-c3cccc4[nH]ncc34)nc(N3CCOCC3)c2n1 [2-24, 6-(1H-indazol-4-yl)-2-methyl-8-morpholinoimidazo[1,2-a]pyrazine] | 2600 nM | > 1000 nM |  |
| COc1cncc(-c2cn3cc(C)nc3c(N3CCOCC3)n2)c1 [2-27, 6-(5-methoxypyridin-3-yl)-2-methyl-8-morpholinoimidazo[1,2-a]pyrazine] | 3900 nM | > 1000 nM |  |
| Cc1cn2cc(-c3cccc(NS(C)(=O)=O)c3)nc(N3CCOCC3)c2n1 [2-28] | 50000 nM |  |  |
| Cc1cn2cc(-c3cncc(O)c3)nc(N3CCOCC3)c2n1 [2-30, 5-(2-methyl-8-morpholinoimidazo[1,2-a]pyrazin-6-yl)pyridin-3-ol] | 235 nM | 100 to 1000 nM |  |
| CN1CCN(c2cnc3c(N4CCOCC4)nc(-c4cccc5[nH]ncc45)cn23)CC1 [2-38, 6-(1H-indazol-4-yl)-3-(4-methylpiperazin-1-yl)-8-morpholinoimidazo[1,2-a]-pyrazine] |  | 100 to 1000 nM |  |
| Oc1cccc(-c2cn3c(N4CCNCC4)cnc3c(N3CCOCC3)n2)c1 [2-40, 3-(8-morpholino-3-(piperazin-1-yl)imidazo[1,2-a]pyrazin-6-yl)phenol] |  | 100 to 1000 nM |  |
| Cc1nc2c(N3CCOCC3)nc(-c3cccc4[nH]ncc34)cn2c1C1=CCNCC1 [2-44, 3-(1,2,3,6-tetrahydropyridin-4-yl)-6-(1H-indazol-4-yl)-2-methyl-8-morpholino-imidazo[1,2-a]pyrazine] | 731 nM | 100 to 1000 nM |  |
| Cc1cn2c(Cl)c(-c3cccc(O)c3)nc(N3CCOCC3)c2n1 [2-49, 3-(5-chloro-2-methyl-8-morpholinoimidazo[1,2-a]pyrazin-6-yl)phenol] |  | 100 to 1000 nM |  |
| CCOC(=O)c1cn2cc(-c3cccc4[nH]ncc34)nc(N3CCOCC3)c2n1 [2-52, ethyl 6-(1H-indazol-4-yl)-8-morpholinoimidazo[1,2-a]pyrazine-2-carboxylate] | 676 nM |  |  |
| Cc1cn2c(Cl)c(-c3cccc4[nH]ncc34)nc(N3CCOCC3)c2n1 [2-54, 5-chloro-6-(1H-indazol-4-yl)-2-methyl-8-morpholinoimidazo[1,2-a]pyrazine] | 266 nM | 100 to 1000 nM |  |
| Cc1cn2c(Br)c(-c3cccc4[nH]ncc34)nc(N3CCOCC3)c2n1 [2-55, 5-bromo-6-(1H-indazol-4-yl)-2-methyl-8-morpholinoimidazo[1,2-a]pyrazine] | 12000 nM |  |  |
| Cc1cn2c(I)c(-c3cccnc3)nc(N3CCOCC3)c2n1 [2-56, 5-iodo-2-methyl-8-morpholino-6-(pyridin-3-yl)imidazo[1,2-a]pyrazine] | 253 nM |  |  |
| Cc1nc2c(N3CCOCC3)nc(-c3cccc4[nH]ncc34)cn2c1C1CCNCC1 [2-57, 6-(1H-indazol-4-yl)-2-methyl-8-morpholino-3-(piperidin-4-yl)imidazo[1,2-a]-pyrazine] | 144 nM | 100 to 1000 nM |  |
| Cc1nc2c(N3CCOCC3)nc(-c3cccc4[nH]ncc34)cn2c1C1CCN(C)CC1 [2-58, 6-(1H-indazol-4-yl)-2-methyl-3-(1-methylpiperidin-4-yl)-8-morpholinoimidazo[1,2-a]pyrazine] |  | 100 to 1000 nM |  |
| Cc1nc2c(N3CCOCC3)nc(-c3cccc4[nH]ncc34)cn2c1C(=O)NC1CCNCC1 [2-64, 6-(1H-indazol-4-yl)-2-methyl-8-morpholino-N-(piperidin-4-yl)imidazo[1,2-a]-pyrazine-3-carboxamide] |  | > 1000 nM |  |
| CS(=O)(=O)N1CCN(Cc2cn3cc(-c4ccc(C(N)=O)cc4)nc(N4CCOCC4)c3n2)CC1 [2-68] | 11000 nM |  |  |
| CN(C)C(=O)c1cn2cc(-c3cccc4[nH]ncc34)nc(N3CCOCC3)c2n1 [2-86] |  |  | 891 nM |
| O=C(c1cn2cc(-c3cccc4[nH]ncc34)nc(N3CCOCC3)c2n1)N1CCCC1 [2-87] |  |  | 355 nM |
| NC(=O)c1cn2cc(-c3cccc4[nH]ccc34)nc(N3CCOCC3)c2n1 [2-94] |  |  | 944 nM |
| NC(=O)c1cn2cc(-c3c(F)ccc4[nH]ccc34)nc(N3CCOCC3)c2n1 [2-95] |  |  | 891 nM |

Further lines, results first:

| IC50 [1] | IC50 [2] | IC50 [3] | Compound |
| --- | --- | --- | --- |
| 19000 nM |  |  | O=C(O)c1cn2cc(-c3cccc(O)c3)nc(N3CCOCC3)c2n1 [2-02, 6-(3-hydroxyphenyl)-8-morpholinoimidazo[1,2-a]pyrazine-2-carboxylic acid] |
| 639 nM | 100 to 1000 nM |  | OCc1cn2cc(-c3cccc(O)c3)nc(N3CCOCC3)c2n1 [2-04, 3-(2-(hydroxymethyl)-8-morpholinoimidazo[1,2-a]pyrazin-6-yl)phenol] |
| 476 nM |  |  | CC(C)(C)OC(=O)N1CCN(Cc2cn3cc(-c4cccc(O)c4)nc(N4CCOCC4)c3n2)CC1 [2-05, tert-butyl 4-((6-(3-hydroxyphenyl)-8-morpholinoimidazo[1,2-a]pyrazin-2-yl)methyl)-piperazine-1-carboxylate] |
| 451 nM | 100 to 1000 nM |  | CC(=O)N1CCN(Cc2cn3cc(-c4cccc(O)c4)nc(N4CCOCC4)c3n2)CC1 [2-06, 1-(4-((6-(3-hydroxyphenyl)-8-morpholinoimidazo[1,2-a]pyrazin-2-yl)methyl)-piperazin-1-yl)ethanone] |
| 27000 nM |  |  | CN1CCN(Cc2cn3cc(-c4cccc(O)c4)nc(N4CCOCC4)c3n2)CC1 [2-07, 3-(2a-((4-methylpiperazin-1-yl)methyl)-8-morpholinoimidazo[1,2-a]pyrazin-6-yl)phenol] |
| 540 nM | 100 to 1000 nM |  | O=C1CN(Cc2cn3cc(-c4cccc(O)c4)nc(N4CCOCC4)c3n2)CCN1 [2-08, 4-((6-(3-hydroxyphenyl)-8-morpholinoimidazo[1,2-a]pyrazin-2-yl)methyl)piperazin-2-one] |
| 444 nM | 100 to 1000 nM |  | Oc1cccc(-c2cn3cc(CN4CCOCC4)nc3c(N3CCOCC3)n2)c1 [2-09, 3-(8-morpholino-2-(morpholinomethyl)imidazo[1,2-a]pyrazin-6-yl)phenol] |
| 44 nM |  |  | CS(=O)(=O)N1CCN(C(=O)c2cn3cc(-c4cccc(O)c4)nc(N4CCOCC4)c3n2)CC1 [2-11, (6-(3-hydroxyphenyl)-8-morpholinoimidazo[1,2-a]pyrazin-2-yl)(4-sulfonylmethyl-piperazin-1-yl)methanone] |
| 340 nM | 100 to 1000 nM |  | Oc1cccc(-c2cn3cc(C4CC4)nc3c(N3CCOCC3)n2)c1 [2-14, 3-(2-cyclopropyl-8-morpholinoimidazo[1,2-a]pyrazin-6-yl)phenol] |
| 741 nM | 100 to 1000 nM |  | CN1CCN(C(=O)c2cn3cc(-c4cccc5[nH]ncc45)nc(N4CCOCC4)c3n2)CC1 [2-15, (6-(1H-indazol-4-yl)-8-morpholinoimidazo[1,2-a]pyrazin-2-yl)(4-methylpiperazin-1-yl)methanone] |
| 96 nM | < 100 nM |  | Cc1cn2cc(-c3cccc(O)c3)nc(N3CCOCC3)c2n1 [2-23, 3-(2-methyl-8-morpholinoimidazo[1,2-a]pyrazin-6-yl)phenol] |
| 10000 nM |  |  | Cc1cn2cc(-c3cccnc3)nc(N3CCOCC3)c2n1 [2-26, 2-methyl-8-morpholino-6-(pyridin-3-yl)imidazo[1,2-a]pyrazine] |
| 3000 nM |  |  | CNC(=O)Nc1ccc(-c2cn3cc(C)nc3c(N3CCOCC3)n2)cc1 [2-29, 1-methyl-3-(4-(2-methyl-8-morpholinoimidazo[1,2-a]pyrazin-6-yl)phenyl)urea] |
| 10000 nM |  |  | Cc1cn2cc(-c3ccncc3)nc(N3CCOCC3)c2n1 [2-31, 2-methyl-8-morpholino-6-(pyridin-4-yl)imidazo[1,2-a]pyrazine] |
|  | 100 to 1000 nM |  | CN1CCN(c2cnc3c(N4CCOCC4)nc(-c4cccc(O)c4)cn23)CC1 [2-37, 3-(3-(4-methylpiperazin-1-yl)-8-morpholinoimidazo[1,2-a]pyrazin-6-yl)phenol] |
|  | 100 to 1000 nM |  | CS(=O)(=O)N1CCN(c2cnc3c(N4CCOCC4)nc(-c4cccc5[nH]ncc45)cn23)CC1 [2-41, 6-(1H-indazol-4-yl)-3-(4-sulfonylmethylpiperazin-1-yl)-8-morpholinoimidazo[1,2-a]pyrazine] |
|  | 100 to 1000 nM |  | CS(=O)(=O)N1CCN(Cc2cn3c(Cl)c(-c4cccc5[nH]ncc45)nc(N4CCOCC4)c3n2)CC1 [2-60, 5-chloro-6-(1H-indazol-4-yl)-8-morpholino-2-((4-sulfonylmethylpiperazin-1-yl)-methyl)imidazo[1,2-a]pyrazine] |
| 210 nM |  |  | CC(=O)Nc1ccc(-c2cn3cc(CN4CCN(S(C)(=O)=O)CC4)nc3c(N3CCOCC3)n2)cn1 [2-81] |
| 210 nM |  |  | CS(=O)(=O)N1CCN(Cc2cn3cc(-c4cnc(N)c(C(F)(F)F)c4)nc(N4CCOCC4)c3n2)CC1 [2-83] |
|  |  | 33000 nM | CS(=O)(=O)N1CCN(Cc2cn3cc(-c4ccc(N)cc4)nc(N4CCOCC4)c3n2)CC1 [2-89] |
|  |  | 6000 nM | CS(=O)(=O)N1CCN(Cc2cn3cc(-c4cn[nH]c4)nc(N4CCOCC4)c3n2)CC1 [2-90] |
|  |  | 3900 nM | NC(=O)c1cn2cc(-c3ccncc3)nc(N3CCOCC3)c2n1 [2-91] |
|  |  | 4500 nM | CC(C)(C)OC(=O)N1CCC2(CCN(Cc3cn4cc(-c5cccc6[nH]ncc56)nc(N5CCOCC5)c4n3)CC2)C1 [2-97] |
